{"source": "patent US12655092B2", "about": "“Precursor compounds of ester compounds” (University of Guelph, priority 2019, dated 2026)", "key": {"[1]": {"test_system": "spotted-wing Drosophila (SWD) adults", "assay": "Mortality of adult SWD on blueberries exposed to EF vapor released from the precursor", "type": "in vivo", "method": "The EF precursor from Example 1 was activated using an acid-dispersed substrate (acidified substrate prepared in Example 1) and the moisture generated from fruit respiration to release EF vapor. In a model system utilized spotted-wing Drosophila (SWD), an invasive insect pest of many fruit crops, as the surrogate test organism. The mortality of adult SWD on blueberries was evaluated when they were exposed to the EF vapor released from the precursor. Different amounts of the EF precursor (2.5, 5.0, and 7.5 mg) were activated using the citric acid-dispersed substrate to release 1, 2, and 3 mg of EF, respectively, in a sealed 1 L glass jar containing 0, 20 or 40 g of blueberries and 10 adult SWD."}, "[2]": {"assay": "Storage stability of the precursor at 25° C. under 0, 60 and 100% RH (EF release after storage)", "type": "physicochemical", "method": "The stability of the precursor was studied over a period of 30 days. The precursor was stored at 25° C. under 0, 60, and 100% RH. An environmental chamber (MLR-350H, Sanyo Electric Co., Ltd. Japan) was used to control the humidity levels and temperature. Samples from each condition were tested for EF release at 1, 15, and 30th day at 25° C. using 0.1 N citric acid solution as described above."}, "[3]": {"assay": "EF release from the precursor activated with 0.1 N citric acid solution, headspace GC analysis", "type": "physicochemical", "conditions": "for EF released: after 120 min", "method": "(§1) The cumulative release of EF from the precursor was determined using an automatic headspace analysis system (FIG. 1). The system comprising of an environmental chamber (MLR-350H, Sanyo Electric Co., Ltd. Japan), a gas chromatograph (GC 6890, Agilent Technologies Inc., Santa Clara, CA, USA) equipped with a flame ionization detector (FID), stream selection valves (EMTCA-CE, VICI Valco Inst., Houston, TX, USA), 1/16 stainless steel tubing, and a control board (SRI Instruments Inc., Las Vegas, Nev., USA). The capillary column used with the GC was Agilent J&W DB-624 (Agilent Technologies Inc., Santa Clara, CA, USA) with 30 m length, 0.53 mm I.D, and 3 μm film thickness. The temperature of the detector and the oven were 200° C. and 40° C., respectively. The flow rates of N2, H2, and O2 were 30, 50, and 200 mL/min, respectively. The calibration curve was prepared by measuring standard headspace concentration of a known amount of EF. Chromatograms were analyzed using the Peak Simple software (393-32 bit, SRI Instruments, CA, USA). At any given sampling point, the total amount of EF released into the headspace (Mt, μL) was determined according to Eqs. 5 to 7 by the addition of the recorded amount (Mr, μL) and the accumulated loss (Ml, μL) of all the previous sampling points up to that point.\nTo activate the release of EF, two approaches were evaluated. In the first approach, 1-2 mg of the precursor was placed in a 10 mL, glass beaker inside a hermetically sealed 1 L, glass jar as shown in FIG. 1. The headspace gas was extracted through a septum attached to the jar lid at predetermined time intervals. EF release was triggered by distributing 1 mL of 0.1 N citric acid on the precursor particles using a pipette (Fisher Scientific, Ottawa, ON, Canada) just before closing the jar and attaching it to the sampling needle. The release of EF from the precursor was studied at 5, 15, and 25° C.\n(§2) The release kinetics of EF from its precursor were modeled using an empirical pseudo-first order reaction kinetic model:\n(§3) [formula] where Ce is the concentration of EF in the headspace of the 1 L test jar at an infinite time; C is the EF released at time, t; C0 is the EF initial concentration (which was equal to zero in our case); and k is the release rate constants. Non-linear regression analyses were conducted to fit the release data and determine the model parameters. Results and Discussion Ethyl Formate Precursor Formation"}, "[4]": {"assay": "Dispersion of precursor particulates in water", "type": "physicochemical", "conditions": "5 h of stirring"}, "[5]": {"assay": "EF release from the precursor on citric acid-acidified nonwoven substrate at different RH, headspace GC analysis", "type": "physicochemical", "conditions": "25° C.; for Ce / k: fitted model", "method": "as §1\nIn the second study, the release of EF was evaluated using an acidified substrate which was prepared by impregnating 0.3 mL of 5% (w/v) citric acid/anhydrous ethanol solution into a 3×3 cm spun-bound polypropylene nonwoven, followed by drying it overnight at 40° C. The precursor (1-2 mg) was then spreaded on the top of the acidified nonwoven layer and exposed to the test relative humidity maintained in a hermetically 1 L glass jar using silica gel (0% RH) or saturated salt solutions (magnesium nitrate, 53% RH; sodium chloride, 75% RH; potassium nitrate, 94% RH) (FIG. 1) (ASTM Standard E104-02 2012; Greenspan, 1977). EF release, expressed in milligram of EF per milligram of precursor per litre of headspace air, was determined using the headspace analysis system described above.\nas §2, §3"}, "[6]": {"test_system": "adult weevils", "conditions": "50-55 g/m^3 headspace concentration at 4-8° C. for 24 h, apple; cited from earlier work"}, "[7]": {"test_system": "Penicillium digitatum", "conditions": "EF vapor 6.5-11.5 mmol/dish, agar medium; cited from earlier work"}, "[8]": {"test_system": "Rhizopus stolonifer, Colletotrichum musae, Erwinia carotovora, and Pseudomonas aeruginosa", "conditions": "EF vapor, agar medium; cited from earlier work"}, "[9]": {"test_system": "Saccharomyces rouxii and Saccharomyces mellis", "conditions": "EF at 3 mL/lb on Deglet Noor dates; cited from earlier work"}, "[10]": {"test_system": "test insects in the wheat, split faba beans and sorghum bins", "conditions": "85 g/t for 4 h followed by second 85 g/t treatment, unsealed metal bins; cited from earlier work"}, "[11]": {"conditions": "25 °C, fitted pseudo-first order model, listed as A"}, "[12]": {"conditions": "25 °C, fitted pseudo-first order model, listed as B"}}, "note": "Several values for one entry are separate records, joined by “and”; a condition that tells them apart may be missing. Equal values may be shown once. Marks after values point to notes of the source that are not given here."}
{"compound": "CCOC=NNC(=O)CCCCC(=O)NN=COCC", "note": "[EF precursor, diethyl N,N′-adipoyldiformohydrazonate]", "values": [{"measurement": "mortality", "setting": "[1]; after 2 h, 1 mg EF (2.5 mg precursor), 1 L jar with 40 g of blueberries", "result": 63, "unit": "%"}, {"measurement": "mortality", "setting": "[1]; after 2 h, 1 mg EF, jars without blueberries", "result": 16, "unit": "%"}, {"measurement": "mortality", "setting": "[1]; after 2 h, 3 mg EF (7.5 mg precursor), 1 L jar with 40 g of blueberries", "result": 96, "unit": "%"}, {"measurement": "mortality", "setting": "[1]; after 2 h, 3 mg EF, jars without blueberries", "result": 60, "unit": "%"}, {"measurement": "mortality", "setting": "[1]; at 4 h, all the concentrations", "result": 100, "unit": "%"}, {"measurement": "changes in the amount of EF released after storage", "setting": "[2]; stored at 0% RH, days 1, 15 and 30", "result": "no significant (p>0.05) changes"}, {"measurement": "reduction in EF release", "setting": "[2]; stored at 60% RH, after 15 days", "result": 18, "unit": "%"}, {"measurement": "reduction in EF release", "setting": "[2]; stored at 60% RH, after 30 days", "result": 45, "unit": "%"}, {"measurement": "reduction in EF release", "setting": "[2]; stored at 100% RH, 15 days", "result": 62, "unit": "%"}, {"measurement": "reduction in EF release", "setting": "[2]; stored at 100% RH, 30 days", "result": 81, "unit": "%"}]}
{"compound": "CCOC=NNC(=O)CCCCC(=O)NN=COCC", "note": "[Precursor A, diethyl N,N′-adipoyldiformohydrazonate]", "values": [{"measurement": "EF released", "setting": "[3]; 25 °C, listed as A", "result": "89.0 ± 1.5", "unit": "%"}, {"measurement": "Ce", "setting": "[3]; [11]", "result": "0.350 ± 0.005^a mg/mg · L"}, {"measurement": "k", "setting": "[3]; [11]", "result": "0.037 ± 0.000^a min^−1"}]}
{"compound": "CCOC=NNC(=O)CCCCC(=O)NN=COCC", "note": "[Precursor B, diethyl N,N′-adipoyldiformohydrazonate]", "values": [{"measurement": "dispersibility of precursor particulates in water", "setting": "[4]", "result": "agglomerates presisted even after 5 h of stirring"}, {"measurement": "Ce", "setting": "[3]; 5 °C, fitted model", "result": "0.792 ± 0.004^c mg/mg · L"}, {"measurement": "k", "setting": "[3]; 5 °C, fitted model", "result": "0.004 ± 0.001^d min^−1"}, {"measurement": "Ce", "setting": "[3]; 15 °C, fitted model", "result": "0.456 ± 0.014^a, b mg/mg · L"}, {"measurement": "k", "setting": "[3]; 15 °C, fitted model", "result": "0.010 ± 0.000^c min^−1"}, {"measurement": "EF released", "setting": "[3]; 25 °C, listed as B", "result": "97.9 ± 2.0", "unit": "%"}, {"measurement": "EF released", "setting": "[3]; 25 °C, mg EF per mg precursor per L headspace", "result": "0.38±0.002 mg/mg · L and 0.382 ± 0.008^a mg/mg · L"}, {"measurement": "Ce", "setting": "[3]; [12]", "result": "0.389 ± 0.007^a, b mg/mg · L"}, {"measurement": "k", "setting": "[3]; [12]", "result": "0.030 ± 0.001^b min^−1"}, {"measurement": "EF release", "setting": "[5]; 0% RH, acid-dispersed substrate", "result": "no release was observed"}, {"measurement": "Ce", "setting": "[5]; 53% RH", "result": "0.072 ± 0.013^c mg/mg · L"}, {"measurement": "k", "setting": "[5]; 53% RH", "result": "0.006 ± 0.001^b min^−1"}, {"measurement": "Ce", "setting": "[5]; 75% RH", "result": "0.200 ± 0.037^b mg/mg · L"}, {"measurement": "k", "setting": "[5]; 75% RH", "result": "0.024 ± 0.004^a min^−1"}, {"measurement": "Ce", "setting": "[5]; 94% RH", "result": "0.333 ± 0.019^a mg/mg · L"}, {"measurement": "k", "setting": "[5]; 94% RH", "result": "0.026 ± 0.002^a min^−1"}]}
{"compound": "ethyl formate [EF]", "values": [{"measurement": "mortality", "setting": "[6]", "result": 100, "unit": "%"}, {"measurement": "growth inhibition", "setting": "[7]", "result": "did not show complete inhibit"}, {"measurement": "germicidal concentration", "setting": "[8]", "result": "6.5-11.5 mmol/dish"}, {"measurement": "microbial growth inhibition", "setting": "[9]", "result": "able to inhibit the microbial growth"}, {"measurement": "insect control", "setting": "[10]", "result": "high level of control"}]}
